Patent US20140024620A1, “Methods for Inhibiting Cell Proliferation in EGFR-Driven Cancers” (ARIAD PHARMACEUTICALS, INC., priority 2010, published 2014)

Test system: Ba/F3 cells expressing EGFR-Del/T790M
Experiment: tumor model using Ba/F3 cells expressing EGFR-Del/T790M
Format: in vivo, mice
Excerpt: NSCLC cell lines as well as engineered Ba/F3 and NIH3T3 cell lines were used to examine the activity of compounds of formula (I) against 3 general forms of EGFR: native EGFR (the naturally occurring form), EGFR with an activating mutation (delE746_A750 [Del] or L858R; this form is sensitive to first generation EGFR inhibitors), and EGFR with both an activating mutation and a T790M resistance mutation (L858R/T790M or Del/T790M; the addition of the T790M mutation makes this form resistant to first generation EGFR inhibitors). Effects of test compounds on EGFR signaling were assessed by measuring levels of phosphorylated EGFR, effects on in vitro proliferation measured by a growth or viability assay, and effects on in vivo tumor growth measured in mice following daily oral dosing.

SMILES: COc1cc(N2CCC(N3CCN(C)CC3)CC2)ccc1Nc1ncc(Cl)c(Nc2ccccc2P(C)(C)=O)n1 [AP26113]
- inhibition at 50 mg/kg (Mus musculus, BaF3, 24 h, read-out: inhibition of levels of phosphorylated EGFR in the tumor): > 80%
- tumor growth inhibition (daily oral dosing with 50 mg/kg): > 90%
